This assay relates to human immunodeficiency virus (HIV-1). As to the kind of experiment: Inactivation of cell free HIV-1 (MT-4 indicator cells). In kind it is cell-based. The settings on record: 2 h treatment, MT-4 + HIV-1, day 7. The procedure: After 2 h at 37° C., treated and control HIV-1 samples were added to the indicator MT-4 cells (cultured human T cells) in the presence of 2 μg/ml POLYBRENE™ for 2 h. After washing, MT-4 cells were cultured in the presence of drug-treated or control (untreated) HIV-1. Cell viability of MT-4 cells was determined by the trypan blue dye exclusion method.

For the compound `CCCCN1C(=O)CC(=O)N(CCCC)C1=S` [Compound C1, 4,6(1H, 5H)-pyrimidinedione, 1,3-dibutyldihydro-2-thioxo], the “% Inactivation Day 7” value (125 μg/ml) stood at 62%. Under “Human immunodeficiency virus 1, 168 h, 75 μg/ml”, the killing at 75 µg/mL is 7.7%. Under “Human immunodeficiency virus 1, 168 h, 100 μg/ml”, the killing at 100 µg/mL is 34.1%. Besides, for the setting “Human immunodeficiency virus 1, 168 h, 125 μg/ml”, the killing at 125 µg/mL is 62.6%.

These data come from patent US5869494A, “Uses for barbituric acid analogs” (priority 1997, dated 1999).
